Laboratory results as given in ChEMBL document CHEMBL1201862, “PubChem BioAssay data set” (2004).
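How tested: cells in 96-well plates exposed to compound for 48 hours at five concentrations. The concentration for 50% growth inhibition is given as GI50.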 Activity calls are given as the source filed them. No stated cut-off is given here; in the data, active = GI50 up to about 1.1 µM and inactive = higher.

Assays:
Experiment in all cases: DTP human tumour cell line panel, 48 h
[1] = test system: Hs-578T
[2] = test system: HCT-116
[3] = test system: SR
[4] = test system: OVCAR-4
[5] = test system: Malme-3M
[6] = test system: UACC-257
[7] = test system: COLO 205
[8] = test system: MDA-MB-435
[9] = test system: A498
[10] = test system: OVCAR-3
[11] = test system: SW-620
[12] = test system: U-251
[13] = test system: MDA-N
[14] = test system: MDA-MB-231
[15] = test system: ACHN
[16] = test system: HOP-62
[17] = test system: M14
[18] = test system: NCI-H23
[19] = test system: NCI-H226
[20] = test system: OVCAR-8

Measured: GI50

c1ccc(CNCCCNCCCCNCCCNCc2ccccc2)cc1
inactive: [1] 1.91 µM | [2] 2.94 µM | [3] 3.39 µM | [4] 13.8 µM | [5] 2.02 µM | [6] 15 µM | [7] 1.82 µM | [8] 4.22 µM | [9] > 10 µM | [10] 11.9 µM | [11] 1.8 µM | [12] 7.87 µM | [13] 1.83 µM | [14] 6.5 µM | [15] 6.05 µM | [16] 4.15 µM | [17] 5.46 µM | [18] 2.38 µM | [19] 4.68 µM | [20] 12.8 µM

O=C(CNc1ccc([N+](=O)[O-])cc1)Nn1c(-c2ccccc2)nc2ccccc2c1=O
inactive: [1] 2.73 µM | [2] 3.03 µM | [3] 3.1 µM | [4] 2.79 µM | [5] 2.03 µM | [6] 7.78 µM | [7] 2.28 µM | [8] 3.96 µM | [9] 7.01 µM | [10] 6.93 µM | [11] 2.39 µM | [12] 1.95 µM | [13] 3.49 µM | [14] 3.52 µM | [15] 3.95 µM | [16] 11.2 µM | [17] 3.03 µM | [18] 2.43 µM | [19] 4.69 µM | [20] 4.24 µM

Cc1cccc2c1C(=O)[C@@](C)([C@]1(C)Nc3cccc(C)c3C1=O)N2
inactive: [1] > 100 µM | [2] > 100 µM | [3] > 100 µM | [4] > 100 µM | [5] > 100 µM | [6] > 100 µM | [7] > 100 µM | [8] 31.1 µM | [9] > 100 µM | [10] > 100 µM | [11] > 100 µM | [12] > 100 µM | [13] 98.4 µM | [14] > 100 µM | [15] > 100 µM | [16] > 100 µM | [17] > 100 µM | [18] > 100 µM | [19] > 100 µM | [20] > 100 µM

Cc1ccc2c(n1)C(=O)C=CC2=O
inactive: [1] 30.8 µM | [2] 1.97 µM | [3] 3.24 µM | [4] 6.87 µM | [5] 5.79 µM | [6] 7.35 µM | [7] 2.14 µM | [8] 17.2 µM | [9] 16.8 µM | [10] 2.71 µM | [11] 3 µM | [12] 17.4 µM | [13] 7.4 µM | [14] 4.72 µM | [15] 2.89 µM | [16] 26.3 µM | [17] 15 µM | [18] 15.7 µM | [19] 19.6 µM | [20] 15.1 µM

CC(C)(C)/C(O)=C\c1nc2ccc(C(F)(F)F)cc2[nH]c1=O
inactive: [1] > 100 µM | [2] > 100 µM | [3] > 100 µM | [4] > 100 µM | [5] > 100 µM | [6] > 100 µM | [7] > 100 µM | [8] > 100 µM | [9] > 100 µM | [10] > 100 µM | [11] > 100 µM | [12] > 100 µM | [13] > 100 µM | [14] > 100 µM | [15] > 100 µM | [16] > 100 µM | [17] > 100 µM | [18] > 100 µM | [19] > 100 µM | [20] > 100 µM

COC(OC)C1OCC(n2cc(F)c(=O)[nH]c2=O)C1O (stereo not given)
inactive: [1] > 100 µM | [2] > 100 µM | [3] > 100 µM | [4] > 100 µM | [5] > 100 µM | [6] > 100 µM | [7] > 100 µM | [8] > 100 µM | [9] > 100 µM | [10] > 100 µM | [11] > 100 µM | [12] > 100 µM | [13] > 100 µM | [14] > 100 µM | [15] > 100 µM | [16] > 100 µM | [17] > 100 µM | [18] > 100 µM | [19] > 100 µM | [20] > 100 µM

OCCCCCNc1nc(O)c2[nH]cnc2n1
inactive: [1] 90.8 µM | [2] > 100 µM | [3] > 100 µM | [4] > 100 µM | [5] > 100 µM | [6] > 100 µM | [7] > 100 µM | [8] > 100 µM | [9] > 100 µM | [10] > 100 µM | [11] > 100 µM | [12] > 100 µM | [13] > 100 µM | [14] > 100 µM | [15] > 100 µM | [16] > 100 µM | [17] > 100 µM | [18] > 100 µM | [19] > 100 µM | [20] > 100 µM
